Test results from ChEMBL document CHEMBL1153235, “Synthesis and antiproliferating activity of iron chelators of hydroxyamino-1,3,5-triazine family” (Bioorg Med Chem Lett, 2010).

What was measured:
MDA-MB-231 (human) = test: Cytotoxicity against human MDA-MB-231 cells after 96 hrs by MTT assay; conditions: MDA-MB-231, 96 h
[1] = Cytotoxicity against human foreskin fibroblasts after 96 hrs by MTT assay; type: cell-based; conditions: Fibroblast
MIA PaCa-2 (human) = test: Cytotoxicity against human MIAPaCa2 cells after 96 hrs by MTT assay; conditions: MIA PaCa-2, 96 h

Structure (SMILES)	IC50 (MDA-MB-231 (human)) [µM]	IC50 [1] [µM]	IC50 (MIA PaCa-2 (human)) [µM]
CN(O)c1nc(NN)nc(N2CCOCC2)n1	150	400	150
CCOC(=O)CN(C)c1nc(N(C)O)nc(N(C)O)n1	20	200	4
ONc1nc(NO)nc(N2CCOCC2)n1	250	350	40
CON(C)c1nc(N(C)O)nc(N2CCOCC2)n1	150	250	40
CN(O)c1nc(N(C)O)nc(N2CCOCC2)n1	9	200	1
O=C(O)c1ccc(-n2nc(-c3ccccc3O)nc2-c2ccccc2O)cc1 [DEFERASIROX]	10	100	4
CCCCNc1nc(N(C)O)nc(N(C)O)n1	4	16.5	0.8
CN(O)c1nc(N2CCOCC2)nc(N2CCC=N2)n1	75	250	50
CCCCNc1nc(NN)nc(N(C)O)n1	75	300	50
